# According to patent US8501794B2, “Compounds as cannabinoid receptor ligands” (priority 2007, dated 2013):
# Read-outs that look alike come from different tables or passages of the source.
# Legend:
# [1] = biological target: T1, human CB2 receptors (Homo sapiens, UniProt P34972); assay: human CB2 radioligand binding assay ([3H]CP-55,940 competition)
# T1 construct: expressed in transfected cells; host or cells: HEK293
# [2] = biological target: T2, rat CB2 (Rattus norvegicus, UniProt Q9QZN9); assay: rat CB2 radioligand binding assay ([3H]CP-55,940 competition); design: expressed in transfected cells; host or cells: HEK293
# T2 sequence (Q9QZN9 1-360): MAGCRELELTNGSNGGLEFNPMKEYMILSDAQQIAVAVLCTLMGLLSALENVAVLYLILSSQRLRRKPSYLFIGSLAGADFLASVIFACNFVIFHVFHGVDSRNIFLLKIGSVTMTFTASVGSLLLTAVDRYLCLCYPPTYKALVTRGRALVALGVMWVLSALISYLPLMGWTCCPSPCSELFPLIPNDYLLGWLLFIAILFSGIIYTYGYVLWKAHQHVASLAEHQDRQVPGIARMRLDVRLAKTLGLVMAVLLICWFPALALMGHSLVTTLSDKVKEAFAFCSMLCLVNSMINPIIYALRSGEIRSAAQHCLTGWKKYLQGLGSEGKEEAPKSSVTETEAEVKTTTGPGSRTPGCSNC
# [3] = HEK293 membranes, 0.5 nM [3H]CP-55,940, read-out: human CB2 (Ki)
# [4] = HEK293 membranes, 0.5 nM [3H]CP-55,940, read-out: rat CB2 (Ki)
# T1 sequence (P34972 whole entry): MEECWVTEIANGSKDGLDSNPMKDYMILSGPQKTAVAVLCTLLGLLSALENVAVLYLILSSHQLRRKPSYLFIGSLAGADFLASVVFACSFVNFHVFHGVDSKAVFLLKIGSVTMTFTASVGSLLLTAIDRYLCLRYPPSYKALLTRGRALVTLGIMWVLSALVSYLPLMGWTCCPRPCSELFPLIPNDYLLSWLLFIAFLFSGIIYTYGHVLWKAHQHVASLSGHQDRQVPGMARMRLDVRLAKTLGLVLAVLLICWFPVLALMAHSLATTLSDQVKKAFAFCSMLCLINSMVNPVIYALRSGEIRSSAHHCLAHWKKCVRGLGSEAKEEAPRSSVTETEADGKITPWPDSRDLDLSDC
Structure (SMILES),"Ki [1, 3]",Ki [2],Ki [1],"Ki [2, 4]"
"CCCCc1cn(C(C)(C)C)s/c1=N\C(=O)[C@]1(C)CC[C@H](C(=O)N2CC(O)C2)C1(C)C [Example 180, (1R,3S)—N-[(5Z)-4-butyl-2-tert-butylisothiazol-5(2H)-ylidene]-3-[(3-hydroxyazetidin-1-yl)carbonyl]-1,2,2-trimethylcyclopentanecarboxamide]",260 nM,37 nM,–,–
"CCCCc1cn(C(C)(C)C)s/c1=N\C(=O)C12CCC(C(=O)OC)(CC1)CC2 [Example 108, Methyl 4-({[(5Z)-4-butyl-2-tert-butylisothiazol-5(2H)-ylidene]amino}carbonyl)bicyclo[2.2.2]octane-1-carboxylate]",180 nM,13 nM,–,–
"CCCCc1cn(C(C)(C)C)s/c1=N\C(=O)[C@]1(C)CC[C@H](C(=O)NCC(F)(F)F)C1(C)C [Example 238, (1R,3S)—N^1-[(5Z)-4-butyl-2-tert-butylisothiazol-5(2H)-ylidene]-1,2,2-trimethyl-N^3-(2,2,2-trifluoroethyl)cyclopentane-1,3-dicarboxamide]",–,14 nM,23 nM,–
"CCCCc1cn(C(C)(C)C)s/c1=N\C(=O)[C@@]1(C)CC[C@@H](NC(N)=O)C1(C)C [Example 253, (1S,3R)-3-[(aminocarbonyl)amino]-N-[(5Z)-4-butyl-2-tert-butylisothiazol-5(2H)-ylidene]-1,2,2-trimethylcyclopentanecarboxamide]",–,45 nM,160 nM,–
"CC(C)Cc1cn(C(C)(C)C)s/c1=N\C(=O)c1cc(C(F)(F)F)ccc1OC[C@@H]1CCCN1C [Example 197, N-[(5Z)-2-tert-butyl-4-isobutylisothiazol-5(2H)-ylidene]-2-{[(2S)-1-methylpyrrolidin-2-yl]methoxy}-5-(trifluoromethyl)benzamide]",260 nM,–,–,156 nM
"CCCCc1cn(C(C)(C)C)s/c1=N\C(=O)[C@]1(C)CC[C@H](C(=O)NC[C@H]2CCCO2)C1(C)C [Example 214, (1R,3S)—N^1-[(5Z)-4-butyl-2-tert-butylisothiazol-5(2H)-ylidene]-1,2,2-trimethyl-N^3-[(2R)-tetrahydrofuran-2-ylmethyl]cyclopentane-1,3-dicarboxamide]",–,83 nM,130 nM,–
"CCCCc1cn(C(C)(C)C)s/c1=N\C(=O)[C@]1(C)CC[C@H](C(=O)N(C)OC)C1(C)C [Example 241, (1R,3S)—N^1-[(5Z)-4-butyl-2-tert-butylisothiazol-5(2H)-ylidene]-N^3-methoxy-N^3,1,2,2-tetramethylcyclopentane-1,3-dicarboxamide]",–,24 nM,20 nM,–
"CCCCc1cn(C(C)(C)C)s/c1=N\C(=O)[C@]1(C)CC[C@H](C(=O)N2CCC2)C1(C)C [Example 178, (1R,3S)-3-(azetidin-1-ylcarbonyl)-N-[(5Z)-4-butyl-2-tert-butylisothiazol-5(2H)-ylidene]-1,2,2-trimethylcyclopentanecarboxamide]",–,46 nM,170 nM,–
"CCCCc1cn(C(C)(C)C)s/c1=N\C(=O)[C@]1(C)CC[C@H](NC(=O)N2CC(F)(F)C2)C1(C)C [Example 261, N-[(1S,3R)-3-({[(5Z)-4-butyl-2-tert-butylisothiazol-5(2H)-ylidene]amino}carbonyl)-2,2,3-trimethylcyclopentyl]-3,3-difluoroazetidine-1-carboxamide]",–,44 nM,54 nM,–
"CCCCc1cn(C(C)(C)C)s/c1=N\C(=O)[C@]1(C)CC[C@H](C(=O)NCc2ccccn2)C1(C)C [Example 234, (1R,3S)—N^1-[(5Z)-4-butyl-2-tert-butylisothiazol-5(2H)-ylidene]-1,2,2-trimethyl-N^3-(pyridin-2-ylmethyl)cyclopentane-1,3-dicarboxamide]",320 nM,–,–,142 nM
"C#CCNC(=O)[C@H]1CC[C@@](C)(C(=O)/N=c2\sn(C(C)(C)C)cc2CCCC)C1(C)C [Example 237, (1R,3S)—N^1-[(5Z)-4-butyl-2-tert-butylisothiazol-5(2H)-ylidene]-1,2,2-trimethyl-N^3-prop-2-ynylcyclopentane-1,3-dicarboxamide]",–,18 nM,23 nM,–
"CC(C)Cc1cn(C(C)(C)C)s/c1=N\C(=O)c1cc(C(F)(F)F)ccc1OCc1ccccn1 [Example 200, N-[(5Z)-2-tert-butyl-4-isobutylisothiazol-5(2H)-ylidene]-2-(pyridin-2-ylmethoxy)-5-(trifluoromethyl)benzamide]",470 nM,–,–,391 nM
"COc1ccc(Cl)cc1C(=O)/N=c1\sn(C(C)(C)C)cc1C(O)CC1CCC1 (stereo not drawn) [Example 33, N-[(5Z)-2-tert-butyl-4-(2-cyclobutyl-1-hydroxyethyl)isothiazol-5(2H)-ylidene]-5-chloro-2-methoxybenzamide]",–,1 nM,3.7 nM,–
"CCCCc1cn(C(C)(C)C)s/c1=N\C(=O)N[C@H](C(=O)NC)C(C)(C)C [Example 190, N^2-({[(5Z)-4-butyl-2-tert-butylisothiazol-5(2H)-ylidene]amino}carbonyl)-N^1,3-dimethyl-L-valinamide]",–,2.4 nM,2.4 nM,–
"COc1ccc(C#N)cc1C(=O)/N=c1\sn(C(C)(C)C)cc1Cc1cccs1 [Example 53, N-[(5Z)-2-tert-butyl-4-(thien-2-ylmethyl)isothiazol-5(2H)-ylidene]-5-cyano-2-methoxybenzamide]",–,2.6 nM,59 nM,–
"CCCCc1cn(C(C)(C)C)s/c1=N\C(=O)[C@@H]1CC[C@](C)(NC(N)=O)C1(C)C [Example 246, (1R,3S)-3-[(aminocarbonyl)amino]-N-[(5Z)-4-butyl-2-tert-butylisothiazol-5(2H)-ylidene]-2,2,3-trimethylcyclopentanecarboxamide]",150 nM,38 nM,–,–
"CCCCc1cn(C(C)(C)C)s/c1=N\C(=O)[C@H]1CC[C@@](C)(C(=O)NC)C1(C)C [Example 182, (1R,3S)—N-[(5Z)-4-butyl-2-tert-butylisothiazol-5(2H)-ylidene]-N^1,1,2,2-tetramethylcyclopentane-1,3-dicarboxamidetetramethylcyclopentane-1,3-dicarboxamide]",–,327 nM,350 nM,–
"CCCCc1cn(C(C)(C)C)s/c1=N\C(=O)[C@]1(C)CC[C@H](C(=O)NC2CC2)C1(C)C [Example 208, (1R,3S)—N^1-[(5Z)-4-butyl-2-tert-butylisothiazol-5(2H)-ylidene]-N^3-cyclopropyl-1,2,2-trimethylcyclopentane-1,3-dicarboxamide]",200 nM,11 nM,–,–
"CCCCc1cn(C(C)(C)C)s/c1=N\C(=O)[C@H]1CC[C@@](C)(C(=O)N(C)C)C1(C)C [Example 183, (1R,3S)—N^3-[(5Z)-4-butyl-2-tert-butylisothiazol-5(2H)-ylidene]-N^1,N^1,1,2,2-pentamethylcyclopentane-1,3-dicarboxamide]",210 nM,40 nM,–,–
"CCCCc1cn(C(C)(C)C)s/c1=N\C(=O)[C@@H]1CC[C@](C)(NC(=O)NC)C1(C)C [Example 247, (1R,3S)—N-[(5Z)-4-butyl-2-tert-butylisothiazol-5(2H)-ylidene]-2,2,3-trimethyl-3-{[(methylamino)carbonyl]amino}cyclopentanecarboxamide]",–,40 nM,41 nM,–
"CCC1CC1c1cn(C(C)(C)C)s/c1=N\C(=O)c1cc(Cl)ccc1OC (stereo not drawn) [Example 27, N-[(5Z)-2-tert-butyl-4-(2-ethylcyclopropyl)isothiazol-5(2H)-ylidene]-5-chloro-2-methoxybenzamide]",240 nM,23 nM,–,–
